Read-outs that look alike come from different tables or passages of the source.
Legend:
KRAS(G12D)/SOS1 = biological target: T1, KRAS(G12D)/SOS1 (Homo sapiens, UniProt P01116, G12D); test: KRAS(G12D)/SOS1 homogeneous time-resolved fluorescence (HTRF) assay; format: binding; settings: absence of GTP; 4° C., 3 hr
T1 construct: purchased Cisbio 63ADK000CB17PEH
Procedure, shortened: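 Disruption of the KRAS(G12D)/SOS1 pairing, in the absence of GTP, was read by time-resolved FRET after a 3 hr sealed incubation at 4 °C. Test compounds spanned 20 µM down to 1.02 nM in 3-fold steps. IC50 values correspond to half-maximal inhibition.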

[1] = test system: AGS gastric carcinoma cells [heterozygous G12D]; test: Cancer cell line proliferation (CellTiter-Glo), AGS; format: cell-based; settings: 72 hr treatment, read-out: AGS CTG (EC50)
Procedure, shortened: (§1)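 Cells at 4,000/well grown 72 hr, then treated with 3-fold serial dilutions (20 μM to 1.02 nM, 0.5% DMSO final) for 72 hr at 37° C/5% CO2. Viability by CellTiter-Glo luminescence; EC50 values calculated.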

[2] = test system: SW1990 pancreatic adenocarcinoma cells [homozygous G12D]; test: Cancer cell line proliferation (CellTiter-Glo), SW1990; format: cell-based; settings: Homo sapiens, 72 hr treatment, read-out: SW1990 CTG (EC50)
Experimental: The following cancer cell lines were employed: AGS gastric carcinoma [heterozygous G12D](ATCC, CRL-1739); A-427 lung carcinoma [heterozygous G12D](ATCC, HTB-53); ASPC1 pancreatic adenocarcinoma [homozygous G12D](ATCC, CRL-1682) and SW1990 pancreatic adenocarcinoma [homozygous G12D](ATCC CRL-2172). Cell lines were cultured essentially according to ATCC recommendations.
AGS, A-427, ASPC1, SW1990, and GP2D cells were plated in 96-well tissue culture plates at 4,000 cells/well and incubated at 37° C./5% CO2 for 72 hr in 100 μl of media. 3-fold serial dilutions of each test compound were prepared ranging from 20 μM to 1.02 nM. Each cell line was then treated with test compounds at various concentrations with a final concentration of 0.5% DMSO/well, and then incubated at 37° C./5% CO2 for 72 hr. 100 µl of CellTiter-Glo® Reagent (Promega Corporation, Madison, WI) was added to each well and processed according manufacturer's protocol. Results were analyzed and EC50 values were calculated in GraphPad 7 software.

[3] = test system: A-427 lung carcinoma cells [heterozygous G12D]; test: Cancer cell line proliferation (CellTiter-Glo), A-427; format: cell-based; settings: A-427 cells, 72 hr treatment, read-out: A427 CTG (EC50)
Procedure, shortened: as §1

[4] = test system: ASPC1 pancreatic adenocarcinoma cells [homozygous G12D]; test: Cancer cell line proliferation (CellTiter-Glo), ASPC1; format: cell-based; settings: 72 hr treatment, read-out: ASPC-1 CTG (EC50)
Procedure, shortened: as §1

T1 sequence (P01116 1-188 isoform P01116-2 G12D): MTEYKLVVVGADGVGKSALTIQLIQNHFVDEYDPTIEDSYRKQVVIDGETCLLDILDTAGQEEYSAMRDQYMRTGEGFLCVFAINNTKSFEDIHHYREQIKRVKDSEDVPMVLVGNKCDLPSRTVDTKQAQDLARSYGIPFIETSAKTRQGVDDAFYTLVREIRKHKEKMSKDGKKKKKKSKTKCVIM

SMILES | IC50 (KRAS(G12D)/SOS1) | EC50 ([1]; Homo sapiens) | EC50 [2] | EC50 ([3]; Homo sapiens) | EC50 ([4]; Homo sapiens, ASPC1, 72 h) | EC50 [1] | EC50 [3] | EC50 [4]
C#Cc1c(F)ccc2cc(O)cc(-c3ncc4c(N5CC6CCC(C5)N6)nc(OCC5CN(CC6(CNc7ccc8c(c7)CN(C(=O)c7cc(C(C)C)c(O)cc7O)C8)CC6)C5)nc4c3F)c12 [Compound 194] | < 100 nM | 100 to 1000 nM | 100 to 1000 nM | – | – | – | – | –
C#Cc1c(F)ccc2cc(O)cc(-c3ncc4c(N5CC6CCC(C5)N6)nc(OCC5(CN6CC(N7CCN(Cc8ccc(-n9c(C(=O)NC(C)C(F)(F)F)nnc9-c9cc(C(C)C)c(O)cc9O)cc8)CC7)C6)CC5)nc4c3F)c12 (centres unmarked) [Compound 203] | – | – | < 100 nM | – | – | – | – | –
C#Cc1c(F)ccc2cc(O)cc(-c3ncc4c(N5CC6CCC(C5)N6)nc(OCC5CN(Cc6ccc(-n7c(C(=O)NCC(F)(F)F)nnc7-c7cc(C(C)C)c(O)cc7O)cc6)C5)nc4c3F)c12 [Compound 175] | < 100 nM | 100 to 1000 nM | 100 to 1000 nM | – | – | – | – | –
C#Cc1c(F)ccc2cc(O)cc(-c3ncc4c(N5CC6CCC(C5)N6)nc(OC[C@H]5CCCN5Cc5ccc6c(c5)CN(C(=O)c5cc(C(C)C)c(O)cc5O)C6)nc4c3F)c12 [Compound 204] | – | 100 to 1000 nM | > 1000 nM | – | – | – | – | –
C#Cc1c(F)ccc2cc(O)cc(-c3ncc4c(N5CC6CCC(C5)N6)nc(OCC5(CN6CCC7(CCN(Cc8ccc9c(c8)CN(C(=O)c8cc(C(C)C)c(O)cc8O)C9)CC7)CC6)CC5)nc4c3F)c12 [Compound 184] | < 100 nM | < 100 nM | < 100 nM | – | – | – | – | –
C#Cc1c(F)ccc2cc(O)cc(-c3ncc4c(N5CC6CNC(C6)C5)nc(OCC5(CN6CCN(C7CCN(Cc8ccc(-n9c(C(=O)NC(C)C(F)(F)F)nnc9-c9cc(C(C)C)c(O)cc9O)cc8)CC7)CC6)CC5)nc4c3F)c12 (centres unmarked) [Compound 188] | 100 to 1000 nM | 100 to 1000 nM | 100 to 1000 nM | – | – | – | – | –
C#Cc1c(F)ccc2cc(O)cc(-c3ncc4c(N5CC6CCC(C5)N6)nc(OCC5(CN6CCC(N7CCN(Cc8ccc9c(c8)CN(C(=O)c8cc(C(C)C)c(O)cc8O)C9)CC7)CC6)CC5)nc4c3F)c12 [Compound 180] | < 100 nM | < 100 nM | < 100 nM | – | – | – | – | –
C#Cc1c(F)ccc2cc(O)cc(-c3ncc4c(N5CC6CNC(C6)C5)nc(OCC5(CN6CCC(C7CCN(Cc8ccc(-n9c(C(=O)NC(C)C(F)(F)F)nnc9-c9cc(C(C)C)c(O)cc9O)cc8)CC7)CC6)CC5)nc4c3F)c12 (centres unmarked) [Compound 185] | 100 to 1000 nM | 100 to 1000 nM | 100 to 1000 nM | – | – | – | – | –
C#Cc1c(F)ccc2cc(O)cc(-c3ncc4c(N5CC6CNC(C6)C5)nc(OCC5(CN6CCC(C7CCN(Cc8ccc9c(c8)CN(C(=O)c8cc(O)c(C(C)C)cc8O)C9)CC7)CC6)CC5)nc4c3F)c12 (centres unmarked) [Compound 187] | 100 to 1000 nM | 100 to 1000 nM | > 1000 nM | – | – | – | – | –
C#Cc1c(F)ccc2cc(O)cc(-c3nc(OC)c4c(N5CC6CCC(C5)N6)nc(OCC5(CN6CCN(C7CCN(Cc8ccc9c(c8)CN(C(=O)c8cc(O)c(C(C)C)cc8O)C9)CC7)CC6)CC5)nc4c3F)c12 [Compound 170] | < 100 nM | < 100 nM | < 100 nM | – | – | – | – | –
C#Cc1c(F)ccc2cc(O)cc(-c3nc(OC)c4c(N5CC6CCC(C5)N6)nc(OCC5(CN6CCC(C7CCN(Cc8ccc(-n9c(C(=O)NC(C)C(F)(F)F)nnc9-c9cc(C(C)C)c(O)cc9O)cc8)CC7)CC6)CC5)nc4c3F)c12 (centres unmarked) [Compound 182] | < 100 nM | < 100 nM | < 100 nM | – | – | – | – | –
C#Cc1c(F)ccc2cc(O)cc(-c3ncc4c(N5CC6CCC(C5)N6)nc(OC5CN(Cc6ccc(-n7c(C(=O)NCC(F)(F)F)nnc7-c7cc(C(C)C)c(O)cc7O)cc6)C5)nc4c3F)c12 [Compound 179] | 100 to 1000 nM | 100 to 1000 nM | > 1000 nM | – | – | – | – | –
C#Cc1c(F)ccc2cc(O)cc(-c3ncc4c(N5CC6CCC(C5)N6)nc(OC5CN(Cc6ccc(-n7c(C(=O)NC(C)C(F)(F)F)nnc7-c7cc(C(C)C)c(O)cc7O)cc6)C5)nc4c3F)c12 (centres unmarked) [Compound 176] | 100 to 1000 nM | 100 to 1000 nM | > 1000 nM | – | – | – | – | –
C#Cc1c(F)ccc2cc(O)cc(-c3nc(OC)c4c(N5CC6CNC(C6)C5)nc(OCC5(CN6CCN(Cc7ccc(-n8c(C(=O)NCC)nnc8-c8cc(C(C)C)c(O)cc8O)cc7)CC6)CC5)nc4c3F)c12 (centres unmarked) [Compound 189] | < 100 nM | < 100 nM | < 100 nM | – | – | – | – | –
C#Cc1c(F)ccc2cc(O)cc(-c3nc(OC)c4c(N5CC6CCC(C5)N6)nc(OCC5(CNCC6CN(Cc7ccc8c(c7)CN(C(=O)c7cc(C(C)C)c(O)cc7O)C8)CCO6)CC5)nc4c3F)c12 (centres unmarked) [Compound 191] | < 100 nM | < 100 nM | 100 to 1000 nM | – | – | – | – | –
C#Cc1c(F)ccc2cc(O)cc(-c3ncc4c(N5CC6CCC(C5)N6)nc(OCC5CN(Cc6ccc(-n7c(C(=O)NC(C)C(F)(F)F)nnc7-c7cc(C(C)C)c(O)cc7O)cc6)C5)nc4c3F)c12 (centres unmarked) [Compound 174] | < 100 nM | 100 to 1000 nM | > 1000 nM | – | – | – | – | –
C#Cc1cccc2cc(O)cc(-c3ncc4c(N5CC6CCC(C5)N6)nc(OCC5(CN6CCN(CC7CCN(Cc8ccc(-n9c(C(=O)NCC)nnc9-c9cc(C(C)C)c(OC)cc9OC)cc8)CC7)CC6)CC5)nc4c3F)c12 [Compound 195] | – | 100 to 1000 nM | 100 to 1000 nM | – | – | – | – | –
C#Cc1c(F)ccc2cc(O)cc(-c3ncc4c(N5CC6CCC(C5)N6)nc(OCC5(CN6CCN(C7CCN(Cc8ccc(-n9c(C(=O)NC(C)C(F)(F)F)nnc9-c9cc(C(C)C)c(OC)cc9OC)cc8)CC7)CC6)CC5)nc4c3F)c12 (centres unmarked) [Compound 200] | – | 100 to 1000 nM | > 1000 nM | – | – | – | – | –
C#Cc1c(F)ccc2cc(O)cc(-c3ncc4c(N5CC6CCC(C5)N6)nc(OCC5(CN6CC(N7CCN(Cc8ccc9c(c8)CN(C(=O)c8cc(C(C)C)c(O)cc8O)C9)CC7)C6)CC5)nc4c3F)c12 [Compound 202] | – | 100 to 1000 nM | 100 to 1000 nM | – | – | – | – | –
C#Cc1cccc2cc(O)cc(-c3ncc4c(N5CC6CNC(C6)C5)nc(OCC5(CN6CCN(CC7CCN(Cc8ccc(-n9c(C(=O)NCC)nnc9-c9cc(C(C)C)c(O)cc9O)cc8)CC7)CC6)CC5)nc4c3F)c12 (centres unmarked) [Compound 197] | – | < 100 nM | 100 to 1000 nM | – | – | – | – | –
C#Cc1c(F)ccc2cc(O)cc(-c3ncc4c(N5CC6CCC(C5)N6)nc(OCC5(CN6CCC(C7CCN(Cc8ccc9c(c8)CN(C(=O)c8cc(C(C)C)c(OC)cc8OC)C9)CC7)CC6)CC5)nc4c3F)c12 [Compound 199] | – | 100 to 1000 nM | 100 to 1000 nM | – | – | – | – | –
Cc1cccc2cccc(-c3ncc4c(N5CC6CCC(C5)N6)nc(OC[C@@H]5C[C@H](N6CCN(Cc7ccc(-n8c(O)nnc8-c8cc(C(C)C)c(O)cc8O)cc7)CC6)CN5C)nc4c3F)c12 [Compound 22] | 100 to 1000 nM | 100 to 1000 nM | – | 100 to 1000 nM | > 1000 nM | – | – | –
CNC(=O)c1nnc(-c2cc(C(C)C)c(O)cc2O)n1-c1ccc(CN2CCN(C(=O)C3CCN([C@H]4C[C@@H](COc5nc(N6CC7CCC(C6)N7)c6cnc(-c7cccc8cccc(Cl)c78)c(F)c6n5)N(C)C4)CC3)CC2)cc1 [Compound 7] | 100 to 1000 nM | < 100 nM | – | 100 to 1000 nM | 100 to 1000 nM | – | – | –
C#Cc1cccc2cc(O)cc(-c3ncc4c(N5CC6CNC(C6)C5)nc(OCC5(CN6CCN(CC7CCN(Cc8ccc(-n9c(C(=O)NC(C)C(F)(F)F)nnc9-c9cc(C(C)C)c(O)cc9O)cc8)CC7)CC6)CC5)nc4c3F)c12 (centres unmarked) [Compound 134] | < 100 nM | 100 to 1000 nM | – | 100 to 1000 nM | 100 to 1000 nM | – | – | –
CC(C)c1cc(-c2nnc(C(=O)NC(C)C(F)(F)F)n2-c2ccc(CN3CCC(CN4CCN(CC5(COc6nc(N7CC8CCC(C7)N8)c7cnc(-c8cccc9ccccc89)c(F)c7n6)CC5)CC4)CC3)cc2)c(O)cc1O (centres unmarked) [Compound 137] | 100 to 1000 nM | 100 to 1000 nM | – | 100 to 1000 nM | 100 to 1000 nM | – | – | –
C#Cc1cccc2cccc(-c3ncc4c(N5CC6CCC(C5)N6)nc(OCC5(CN6CCN(C(=O)C7CCN(Cc8ccc(-n9c(C(=O)NCC)nnc9-c9cc(C(C)C)c(O)cc9O)cc8)CC7)CC6)CC5)nc4c3F)c12 [Compound 19] | < 100 nM | < 100 nM | – | 100 to 1000 nM | 100 to 1000 nM | – | – | –
Cc1cccc2cccc(-c3ncc4c(N5CC6CCC(C5)N6)nc(OC[C@@H]5C[C@H](N6CCN(Cc7ccc8c(c7)CN(C(=O)c7cc(C(C)C)c(O)cc7O)C8)CC6)CN5C)nc4c3F)c12 [Compound 68] | > 1000 nM | – | – | – | – | 100 to 1000 nM | 100 to 1000 nM | > 1000 nM
CCNC(=O)c1nnc(-c2cc(C(C)C)c(O)cc2O)n1-c1ccc(CN(C)[C@@H]2CN3CCC[C@]3(COc3nc(N4CC5CCC(C4)N5)c4cnc(-c5cc(O)cc6ccccc56)c(F)c4n3)C2)cc1 [Compound 40] | < 100 nM | 100 to 1000 nM | – | 100 to 1000 nM | > 1000 nM | – | – | –

Source: patent publication US20260070929A1, “METHODS AND COMPOSITIONS FOR MODULATING KRAS(G12D)” (Ranok Therapeutics (Hangzhou) Co. LTD., priority 2022, published 2026)
